The test system of one assay is Ba/F3-c-KIT(D816V). In words: Proliferation inhibitory activity on Ba/F3 cell (CellTiter-Glo, 72 hours), c-KIT(D816V). In kind it is cell-based. The settings on record: Mus musculus, BaF3, read-out: Ba/F3 (nM) c-KIT (D816V) (GI50 class). The protocol: (§1) Ba/F3-TEL-PDGFRα(WT), Ba/F3-TEL-PDGFβ(WT), Ba/F3-c-KIT(D816V) (Kyinno, #KC-0138), c-KIT V560G/D816V, c-KIT D814Y were seeded at 3×10^3/100 μl/well in a clear bottom white 96-well plate. A culture solution containing compounds of 12 concentrations (0.00001-2 mM) serially diluted in 3 folds and the DMSO control group was added at 0.5 μl/well each to a final concentration of 0.00005-10 μM, and then incubated in a CO2 incubator at 37° C. for 72 hours. After 72 hours, the plate treated with the compound was taken out, CellTiter-Glo® Assay (Promega) solution was treated with 100 μl/well, followed by mixing well. After mixing well for about 10 minutes at room temperature, […] was measured using a microplate reader. The data were presented as percentages in proportion to treated cells based on the vehicle, GI50 (nM) values were calculated using GraphPad Prism 8.3.0 (GraphPad software Inc., San Diego).
(§2) The inhibitory activities of Ba/F3 expressing PDGFR-α, PDGFR-β, c-KIT(D816V), c-KIT V560G/D816V, and c-KIT D814Y measured as described above were measured and shown in Table 7 below (A: GI50≤200 nM; B: 200 nM<GI50≤500 nM; C: GI50>500 nM).

Another assay relates to c-KIT V560G/D816V. In words: Proliferation inhibitory activity on Ba/F3 cell (CellTiter-Glo, 72 hours), c-KIT V560G/D816V. The format is cell-based. The settings on record: Mus musculus, BaF3, c-KIT V560G/D816V cells, read-out: Cell (nM) c-KIT V560G/D816V (GI50 class). Here is the method:
as §1, §2
(In ATP-based viability assays light output follows the ATP content of the culture.)

Bounds are passed on as bounds.

For `COc1cc2c(-c3ccc(NC(=O)Cc4ccc(C(F)(F)F)cc4)cc3)ncnc2cc1OCCCCl` [Example 23, N-(4-(7-(3-chloropropoxy)-6-methoxyquinazolin-4-yl)phenyl)-2-(4-(trifluoromethyl)phenyl)acetamide], the values for the GI50 with Ba/F3-c-KIT(D816V) and with c-KIT V560G/D816V were not above 200 nM and 200 to 500 nM, respectively.
The corresponding values for `COc1cc2c(-c3ccc(NC(=O)Cc4ccc(C(F)(F)F)cc4)cc3)ncnc2cc1OC1CNC1` [Example 24, N-(4-(7-(azetidine-3-yloxy)-6-methoxyquinazolin-4-yl)phenyl)-2-(4-(trifluoromethyl)phenyl)acetamide] are not above 200 nM and more than 500 nM.
The corresponding values for `COc1cc2c(-c3ccc(NC(=O)Cc4ccc(C(F)(F)F)cc4)cc3)ncnc2cc1OCCCNC1CC1` [Example 25, N-(4-(7-(3-(cyclopropylamino)propoxy)-6-methoxyquinazolin-4-yl)phenyl)-2-(4-(trifluoromethyl)phenyl)acetamide] are not above 200 nM and not above 200 nM.
`COc1ccc(CN2CC(Oc3cc4ncnc(-c5ccc(NC(=O)Cc6ccc(C(F)(F)F)cc6)cc5)c4cc3OC)C2)cc1` [Example 27, N-(4-(6-methoxy-7-((1-(4-methoxybenzyl)azetidin-3-yl)oxy)quinazolin-4-yl)phenyl)-2-(4-(trifluoromethyl)phenyl)acetamide]: the GI50 in the assay on Ba/F3-c-KIT(D816V) was not above 200 nM; in the assay on c-KIT V560G/D816V, more than 500 nM.
As for `COc1cc2ncnc(-c3ccc(NC(=O)Cc4ccc(C(F)(F)F)cc4)cc3)c2cc1OC1CCN(C(=O)OC(C)(C)C)C1` (stereo not drawn) [Example 136, tert-butyl 3-((7-methoxy-4-(4-(2-(4-(trifluoromethyl)phenyl)acetamido)phenyl)quinazolin-6-yl)oxy)pyrrolidin-1-carboxylate], in the assay on Ba/F3-c-KIT(D816V), the GI50 is not above 200 nM.
The same measure, in the same setting: as for `COc1cc2ncnc(-c3ccc(NC(=O)Cc4ccc(C(F)(F)F)cc4)cc3)c2cc1OCC1CCNCC1` [Example 146, N-(4-(7-methoxy-6-(piperidin-4-ylmethoxy)quinazolin-4-yl)phenyl)-2-(4-(trifluoromethyl)phenyl)acetamide], the figure is more than 500 nM; as for `COc1cc2ncnc(-c3ccc(NC(=O)Cc4ccc(C(F)(F)F)cc4)cc3)c2cc1OCCCN1CC2(CNC2)C1` [Example 148, N-(4-(6-(3-(2,6-diazaspiro[3.3]heptane-2-yl)propoxy)-7-methoxyquinazolin-4-yl)phenyl)-2-(4-(trifluoromethyl)phenyl)acetamide], more than 500 nM.
With `COc1cc2ncnc(-c3ccc(NC(=O)Cc4ccc(C(F)(F)F)cc4)cc3)c2cc1OCCCN1CC(N(C)C)C1` [Example 152, N-(4-(6-(3-(3-(dimethylamino)azetidin-1-yl)propoxy)-7-methoxyquinazolin-4-yl)phenyl)-2-(4-(trifluoromethyl)phenyl)acetamide], the GI50 with Ba/F3-c-KIT(D816V) is not above 200 nM.
As to `COc1cc2ncnc(-c3ccc(NC(=O)Cc4ccc(C(F)(F)F)cc4)cc3)c2cc1OC1COC1` [Example 153, N-(4-(7-methoxy-6-(oxetan-3-yloxy)quinazolin-4-yl)phenyl)-2-(4-(trifluoromethyl)phenyl)acetamide], the GI50 in the assay with Ba/F3-c-KIT(D816V) is not above 200 nM.
The same measure, in the same setting: as for `COc1cc2ncnc(-c3ccc(NC(=O)Cc4ccc(C(F)(F)F)cc4)cc3)c2cc1OCCCNC1CC1` [Example 154, N-(4-(6-(3-(cyclopropylamino)propoxy)-7-methoxyquinazolin-4-yl)phenyl)-2-(4-(trifluoromethyl)phenyl)acetamide], the figure is not above 200 nM; as for `COc1cc2ncnc(-c3ccc(NC(=O)Cc4ccc(C(F)(F)F)cc4)cc3)c2cc1OCCCNc1cnn(C)c1` [Example 155, N-(4-(7-methoxy-6-(3-((1-methyl-1H-pyrazol-4-yl)amino)propoxy)quinazolin-4-yl)phenyl)-2-(4-(trifluoromethyl)phenyl)acetamide], not above 200 nM.
